Test system: HepaRG
Test: LDH release cytotoxicity, % of total lysis control; higher = more cytotoxic
Conditions: 48 h
Summary of the method: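 Single-lot HepaRG cells in collagen I-coated 96-well plates were treated for 48 h in serum-free induction medium containing 0.5% DMSO with test chemicals in eight-point half-log series up to 100 µM. For total lysis, wells received 0.1% Triton X. LDH in 50 µL spent medium was assayed by resorufin fluorescence with CytoTox-ONE. Percent cytotoxicity was normalized to the on-plate vehicle and total lysis controls, with duplicates averaged.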

CC(C)CC(C)(O)C#CC(C)(O)CC(C)C (stereo not given) [2,4,7,9-Tetramethyl-5-decyne-4,7-diol]
Conditions	LDH release cytotoxicity [%]
0.03162 µM	-0.689
0.1 µM	-0.678
0.3162278 µM	-0.883
1 µM	-1.4
3.16228 µM	-0.76
10 µM	-0.333
31.6228 µM	0.979
100 µM	2.91

O=C(O)C(F)(F)C(F)(F)C(F)(F)C(F)(F)C(F)(F)C(F)(F)C(F)(F)F [Perfluorooctanoic acid]
Conditions	LDH release cytotoxicity [%]
0.03162 µM	-0.867
0.1 µM	-1.32
0.3162278 µM	-1.53
1 µM	-1.76
3.16228 µM	-0.724
10 µM	-1.14
31.6228 µM	-1.29
100 µM	1.94

CCC(C)C(=O)OC1CC(O)C=C2C=CC(C)C(CCC(O)CC(O)CC(=O)O)C21 (stereo not given) [Pravastatin sodium]
Conditions	LDH release cytotoxicity [%]
0.03162 µM	-0.512
0.1 µM	-1.91
0.3162278 µM	-0.491
1 µM	-1.07
3.16228 µM	-0.742
10 µM	0.11
31.6228 µM	0.155
100 µM	3.76

OCC1CO1 (stereo not given) [Glycidol]
Conditions	LDH release cytotoxicity [%]
0.03162 µM	-0.883
0.1 µM	-1.28
0.3162278 µM	-0.409
1 µM	-1.25
3.16228 µM	-0.452
10 µM	-0.678
31.6228 µM	-0.342
100 µM	1.57

CCCCCCCCOC(=O)c1cc(O)c(O)c(O)c1 [Octyl gallate]
Conditions	LDH release cytotoxicity [%]
0.03162 µM	-1.14
0.1 µM	-0.159
0.3162278 µM	-0.124
1 µM	-0.776
3.16228 µM	0.219
10 µM	-0.238
31.6228 µM	-1.86
100 µM	2.05

CC(C)=CCC/C(C)=C/CO [Geraniol]
Conditions	LDH release cytotoxicity [%]
0.03162 µM	-2.2
0.1 µM	-2.89
0.3162278 µM	-2.68
1 µM	-2.72
3.16228 µM	-2.26
10 µM	-1.87
31.6228 µM	-1.12
100 µM	-0.773

O=C1CCC(N2C(=O)c3ccccc3C2=O)C(=O)N1 (stereo not given) [Thalidomide]
Conditions	LDH release cytotoxicity [%]
0.03162 µM	-0.888
0.1 µM	-1.52
0.3162278 µM	-0.291
1 µM	-0.415
3.16228 µM	-0.0333
10 µM	0.674
31.6228 µM	1.56
100 µM	1.53

O=S1(=O)CCCO1 [1,3-Propane sultone]
Conditions	LDH release cytotoxicity [%]
0.03162 µM	-0.997
0.1 µM	-2.2
0.3162278 µM	-1.51
1 µM	-1.38
3.16228 µM	-1.5
10 µM	-1.53
31.6228 µM	-0.817
100 µM	-0.0166

Nc1c(Cl)cc([N+](=O)[O-])cc1Cl [Dicloran]
Conditions	LDH release cytotoxicity [%]
0.03162 µM	-0.748
0.1 µM	-1.57
0.3162278 µM	-1.57
1 µM	-2.63
3.16228 µM	-1.28
10 µM	-1.61
31.6228 µM	-0.997
100 µM	0.0971

O=C1C2CC=CCC2C(=O)N1SC(Cl)(Cl)Cl (stereo not given) [Captan]
Conditions	LDH release cytotoxicity [%]
0.03115 µM	-0.761
0.0985 µM	-0.69
0.311484 µM	-1.02
0.985 µM	-1.31
3.11484 µM	-1.78
9.85 µM	-0.651
31.1484 µM	0.632
98.5 µM	27.6

COC(=O)CSc1cc(N=c2sc(=O)n3n2CCCC3)c(F)cc1Cl [Fluthiacet-methyl]
Conditions	LDH release cytotoxicity [%]
0.03162 µM	-1.78
0.1 µM	-2.67
0.3162278 µM	-1.91
1 µM	-1.73
3.16228 µM	-1.61
10 µM	-1.57
31.6228 µM	-0.786
100 µM	0.903

CCCCCCCCCCCO [1-Undecanol]
Conditions	LDH release cytotoxicity [%]
0.01581 µM	-2.55
0.05 µM	-3.97
0.1581139 µM	-3.8
0.5 µM	-4.64
1.5811388 µM	-2.84
5 µM	-3.15
15.8114 µM	-2.96
50 µM	4.08

CCCCC1CN(CC2CCOCC2)C(=O)OC12CCN(C1(C)CCN(C(=O)c3c(C)ncnc3C)CC1)CC2 (stereo not given)
Conditions	LDH release cytotoxicity [%]
0.02846 µM	-1.26
0.09 µM	-1.45
0.284605 µM	-0.87
0.9 µM	-1.55
2.84605 µM	-1.48
9 µM	-1.68
28.4605 µM	-0.822
90 µM	-0.451

NC=O [Formamide]
Conditions	LDH release cytotoxicity [%]
0.03162 µM	-0.907
0.1 µM	-1.37
0.3162278 µM	-0.701
1 µM	-1.62
3.16228 µM	-1.72
10 µM	-1.47
31.6228 µM	-0.537
100 µM	0.4

CCCN(CCC)c1c([N+](=O)[O-])cc(C(F)(F)F)cc1[N+](=O)[O-] [Trifluralin]
Conditions	LDH release cytotoxicity [%]
0.03162 µM	-4.73
0.1 µM	-5.31
0.3162278 µM	-5.66
1 µM	-6.43
3.16228 µM	-5.85
10 µM	-6.17
31.6228 µM	-2.1
100 µM	66.3
